Data reported in patent US20250129070A1, “BIFUNCTIONAL ANDROGEN RECEPTOR COMPOUNDS” (priority 2023, published 2025).

These molecules were tested on AR / CBP ternary complex (assay: Ternary complex formation assay (sandwich ELISA, AR capture / CBP detection) in VCaP cell lysates). Details: 1.5 hours treatment, sandwich ELISA (AR capture, CBP or p300 detection).
Format: cell-based
Protocol: Preparation of Mouse Anti-AR Antibody Coated 96 Well Plates
Black MaxiSorp plates: coat with 50 μL of mouse 1/50 diluted AR antibody (Monoclonal Antibody (AR 441 from Thermo Fisher); diluted in phosphate buffered saline (PBS). Spin the liquid to the bottom of the wells, if necessary. Incubate overnight at 4° C. Next day, wash 3 times with 200 μL of TBST. Block with 200 μL of blocking buffer (5% BSA in TBST) at room temperature for 2 hours (BSA: A4503 or A2153 from Sigma). Wash plates 3 times with TBST. Plates are ready for lysates Preparation of dimerizer treated lysates
Culture cells in 96 wells at 50K VCaP cells/well for at least 3 days. Plate in 5% Omega charcoal stripped FBS in total volume of 200 uL. Treat with bifunctional for 1.5 hours by adding 1 μL of 200× stock in DMSO. Aspirate media/compound. Add and pipet-to-mix 70 μL of 1× AlphaLisa Lysis Buffer to each well (Perkin Elmer, AlphaLISA SureFire Ultra, diluted in water). Pipet up and down when adding lysis buffer to disrupt cells. Let lysis proceed for 30 min at 4° C.
Incubate for 1 hour at room temperature. Flick out the lysates. Wash 3 times with TBST. Add 75 μL of rabbit CBP or p300 antibody to each well (diluted 1:5000 in blocking buffer (5% BSA in TBST). CBP antibody: (D6C5) Rabbit mAb #7389; p300 antibody: (D8Z4E) Rabbit mAb #86377. Incubate overnight at 4° C. Wash 3 times with 300 uL TBST, each time on shaker for 5-10 min. Prepare goat anti-rabbit antibody conjugated to HRP (1/100K dilution in blocking buffer) Invitrogen Catalog number: 32260. Add 75 μL of HRP-conjugated goat anti-rabbit antibody. Incubate at room temperature for 1 hour. Flick out the HRP-antibody mixture. Wash 7-8 times with TBST, each time on shaker for 10 min. Later washes try to overflow the wells so that no residual HRP remains bound to the sides of the well. Prepare and add 75 uL/well of QuantaRed Enhance Chemifluorescent HRP Substrate solution. Immediately read fluorescence on BMG ClarioStar (ex: 570/em 585), and repeat the read in 5 minutes and 15 minutes.

Compound | EC50 [nM]
CC(=O)N1CCc2c(c(N3CCCc4cc(-c5cnn(C)c5)c(C(F)F)cc43)nn2C2CN(C(=O)CC3CCN(c4ncc(C(=O)NC5C(C)(C)C(Oc6ccc(C#N)c(Cl)c6)C5(C)C)cn4)CC3)C2)C1 (stereo not shown) [Compound 163, 2-[4-[2-[3-[5-acetyl-3-[7-(difluoromethyl)-6-(1-methylpyrazol-4-yl)-3,4-dihydro-2H-quinolin-1-yl]-6,7-dihydro-4H-pyrazolo[4,3-c]pyridin-1-yl]azetidin-1-yl]-2-oxo-ethyl]-1-piperidyl]-N-[3-(3-chloro-4-cyano-phenoxy)-2,2,4,4-tetramethyl-cyclobutyl]pyrimidine-5-carboxamide] | < 1
COc1cc(OC2C(C)(C)C(NC(=O)c3ccc(N4CCC(N(C)C5CCC(n6nc(N7CCCc8cc(-c9cnn(C)c9)c(C(F)F)cc87)c7c6CCN(C(C)=O)C7)CC5)CC4)cc3)C2(C)C)ccc1C#N (stereo not shown) [Compound 280, 4-[4-[[4-[5-acetyl-3-[7-(difluoromethyl)-6-(1-methylpyrazol-4-yl)-3,4-dihydro-2H-quinolin-1-yl]-6,7-dihydro-4H-pyrazolo[4,3-c]pyridin-1-yl]cyclohexyl]-methyl-amino]-1-piperidyl]-N-[3-(4-cyano-3-methoxy-phenoxy)-2,2,4,4-tetramethyl-cyclobutyl]benzamide] | < 1
COc1cc(OC2C(C)(C)C(NC(=O)c3ccc(N4CC5(CCC(N6CCC(n7nc(N8CCCc9cc(-c%10cncs%10)c(C(F)F)cc98)c8c7CCN(C(C)=O)C8)CC6)CC5)C4)cc3)C2(C)C)ccc1C#N (stereo not shown) [Compound 428, 4-[7-[4-[5-acetyl-3-[7-(difluoromethyl)-6-thiazol-5-yl-3,4-dihydro-2H-quinolin-1-yl]-6,7-dihydro-4H-pyrazolo[4,3-c]pyridin-1-yl]-1-piperidyl]-2-azaspiro[3.5]nonan-2-yl]-N-[3-(4-cyano-3-methoxy-phenoxy)-2,2,4,4-tetramethyl-cyclobutyl]benzamide] | < 1
CC(=O)N1CCc2c(c(N3CCCc4cc(-c5cn(C)cn5)c(C(F)F)cc43)nn2C2CCN(CC3C(C)CN(c4ncc(C(=O)NC5C(C)(C)C(Oc6ccc(C#N)c(Cl)c6)C5(C)C)cn4)CC3C)CC2)C1 (stereo not shown) [Compound 425, 2-[4-[[4-[5-acetyl-3-[7-(difluoromethyl)-6-(1-methylimidazol-4-yl)-3,4-dihydro-2H-quinolin-1-yl]-6,7-dihydro-4H-pyrazolo[4,3-c]pyridin-1-yl]-1-piperidyl]methyl]-3,5-dimethyl-1-piperidyl]-N-[3-(3-chloro-4-cyano-phenoxy)-2,2,4,4-tetramethyl-cyclobutyl]pyrimidine-5-carboxamide] | < 1
COc1cc(OC2C(C)(C)C(NC(=O)c3ccc(N4CC(N5CCCC6(CCC(n7nc(N8CCCc9cc(-c%10cnn(C)c%10)c(C(F)F)cc98)c8c7CCN(C(C)=O)C8)CC6)C5)C4)cc3)C2(C)C)ccc1C#N (stereo not shown) [Compound 416, 4-[3-[9-[5-acetyl-3-[7-(difluoromethyl)-6-(1-methylpyrazol-4-yl)-3,4-dihydro-2H-quinolin-1-yl]-6,7-dihydro-4Hpyrazolo[4,3-c]pyridin-1-yl]-2-azaspiro[5.5]undecan-2-yl]azetidin-1-yl]-N-[3-(4-cyano-3-methoxy-phenoxy)-2,2,4,4-tetramethyl-cyclobutyl]benzamide] | 1 to 10
CC(=O)N1CCc2c(c(-c3cccc4cc(-c5cnn(CCOC6CCN(c7ncc(C(=O)NC8C(C)(C)C(Oc9ccc(C#N)c(Cl)c9)C8(C)C)cn7)CC6)c5)ncc34)nn2C2CCOCC2)C1 (stereo not shown) [Compound 138, 2-[4-[2-[4-[8-(5-acetyl-1-tetrahydropyran-4-yl-6,7-dihydro-4H-pyrazolo[4,3-c]pyridin-3-yl)-3-isoquinolyl]pyrazol-1-yl]ethoxy]-1-piperidyl]-N-[3-(3-chloro-4-cyano-phenoxy)-2,2,4,4-tetramethyl-cyclobutyl]pyrimidine-5-carboxamide] | < 1
COc1cc(OC2C(C)(C)C(NC(=O)c3ccc(N4CCC[C@@H](N5CCC(n6nc(N7CCCc8cc(-c9cnn(C)c9)c(C(F)F)cc87)c7c6CCN(C(C)=O)C7)CC5)C4)cc3)C2(C)C)ccc1C#N (stereo partly drawn) [Compound 400, 4-[(3R)-3-[4-[5-acetyl-3-[7-(difluoromethyl)-6-(1-methylpyrazol-4-yl)-3,4-dihydro-2H-quinolin-1-yl]-6,7-dihydro-4H-pyrazolo[4,3-c]pyridin-1-yl]-1-piperidyl]-1-piperidyl]-N-[3-(4-cyano-3-methoxy-phenoxy)-2,2,4,4-tetramethyl-cyclobutyl]benzamide] | < 1
COc1cc(OC2C(C)(C)C(NC(=O)c3ccc(N4CCC(C5CCC(n6nc(N7CCCc8cc(-c9cnn(C)c9)c(C(F)F)cc87)c7c6CCN(C(C)=O)C7)CC5)CC4)cc3)C2(C)C)ccc1C#N (stereo not shown) [Compound 259, 4-[4-[4-[5-acetyl-3-[7-(difluoromethyl)-6-(1-methylpyrazol-4-yl)-3,4-dihydro-2H-quinolin-1-yl]-6,7-dihydro-4H-pyrazolo[4,3-c]pyridin-1-yl]cyclohexyl]-1-piperidyl]-N-[3-(4-cyano-3-methoxy-phenoxy)-2,2,4,4-tetramethyl-cyclobutyl]benzamide] | 1 to 10
CC(=O)N1CCc2c(c(N3CCCc4cc(-c5cnn(C)c5)c(C(F)F)cc43)nn2C2CCN(C3CCC(Oc4ncc(C(=O)NC5C(C)(C)C(Oc6ccc(C#N)c(Cl)c6)C5(C)C)cn4)CC3)CC2)C1 (stereo not shown) [Compound 382, 2-[4-[4-[5-acetyl-3-[7-(difluoromethyl)-6-(1-methylpyrazol-4-yl)-3,4-dihydro-2H-quinolin-1-yl]-6,7-dihydro-4H-pyrazolo[4,3-c]pyridin-1-yl]-1-piperidyl]cyclohexoxy]-N-[3-(3-chloro-4-cyano-phenoxy)-2,2,4,4-tetramethyl-cyclobutyl]pyrimidine-5-carboxamide] | < 1
CC(=O)N1CCc2c(c(N3CCCc4cc(-c5cnn(C)c5)c(C)cc43)nn2C2CN(CCC3CCN(c4ncc(C(=O)NC5C(C)(C)C(Oc6ccc(C#N)c(Cl)c6)C5(C)C)cn4)CC3)C2)C1 (stereo not shown) [Compound 160, 2-[4-[2-[3-[5-acetyl-3-[7-methyl-6-(1-methylpyrazol-4-yl)-3,4-dihydro-2H-quinolin-1-yl]-6,7-dihydro-4H-pyrazolo[4,3-c]pyridin-1-yl]azetidin-1-yl]ethyl]-1-piperidyl]-N-[3-(3-chloro-4-cyano-phenoxy)-2,2,4,4-tetramethyl-cyclobutyl]pyrimidine-5-carboxamide] | > 100
CC(=O)N1CCc2c(c(N3CCCc4cc(-c5cnn(C)c5)c(C(F)F)cc43)nn2C2CCN(CC3CCN(c4ccc(C(=O)NC5C(C)(C)C(Oc6ccc(C#N)c(Cl)c6)C5(C)C)nn4)CC3)CC2)C1 (stereo not shown) [Compound 117, 6-[4-[[4-[5-acetyl-3-[7-(difluoromethyl)-6-(1-methylpyrazol-4-yl)-3,4-dihydro-2H-quinolin-1-yl]-6,7-dihydro-4H-pyrazolo[4,3-c]pyridin-1-yl]-1-piperidyl]methyl]-1-piperidyl]-N-[3-(3-chloro-4-cyano-phenoxy)-2,2,4,4-tetramethyl-cyclobutyl]pyridazine-3-carboxamide] | 1 to 10
CC(=O)N1CCc2c(c(N3CCCc4cc(-c5cnn(C)c5)c(C(F)F)cc43)nn2C2CCN(C(=O)C3CCN(c4ccc(C(=O)NC5C(C)(C)C(Oc6ccc(C#N)c(Cl)c6)C5(C)C)cn4)CC3)CC2)C1 (stereo not shown) [Compound 115, 6-[4-[4-[5-acetyl-3-[7-(difluoromethyl)-6-(1-methylpyrazol-4-yl)-3,4-dihydro-2H-quinolin-1-yl]-6,7-dihydro-4H-pyrazolo[4,3-c]pyridin-1-yl]piperidine-1-carbonyl]-1-piperidyl]-N-[3-(3-chloro-4-cyano-phenoxy)-2,2,4,4-tetramethyl-cyclobutyl]pyridine-3-carboxamide] | < 1
CC(=O)N1CCc2c(c(N3CCCc4cc(-c5cnn(C)c5)c(C(F)F)cc43)nn2C2CCC(COC3CCN(c4ncc(C(=O)NC5C(C)(C)C(Oc6ccc(C#N)c(Cl)c6)C5(C)C)cn4)CC3)CC2)C1 (stereo not shown) [Compound 173, 2-[4-[[4-[5-acetyl-3-[7-(difluoromethyl)-6-(1-methylpyrazol-4-yl)-3,4-dihydro-2H-quinolin-1-yl]-6,7-dihydro-4H-pyrazolo[4,3-c]pyridin-1-yl]cyclohexyl]methoxy]-1-piperidyl]-N-[3-(3-chloro-4-cyano-phenoxy)-2,2,4,4-tetramethyl-cyclobutyl]pyrimidine-5-carboxamide] | < 1
